From patent US20030078518A1, “Method of treating the skin of a subject” (priority 2001, published 2003)

Experiments:
Format in all cases: in vivo, human
IGF-1 = assay: Study 2: IGF-1 ELISA in interstitial fluid, effect of supplementation; conditions: Supplement Yes
Procedure: (§1) The laser made four pores at each collection site.
(§2) The other skin analytes were measured in Study 2 using standard ELISA kits: MMP-1 (ELISA Cat # QIA55, Oncogene Research Products, Cambridge Mass.); Total IgE (ELISA Cat # RE59061, IBL, Hamburg, Germany distributed by KMI Diagnostics); Non Extraction IGF-1 (ELISA Cat # DSL-10-2800, Diagnostics Systems Laboratories, Webster Tex.); IL-1 RA (ELISA Cat # DRA00, R&D Systems, Minneapolis, Minn.); IL-1A (ELISA Cat # EH2IL1A, Pierce/Endogen, Rockford, Ill.).

MMP-1 = assay: Study 2: MMP-1 ELISA in interstitial fluid, effect of supplementation; conditions: for Concentration of MMP-1 (log), MEAN: Supplement Yes
Procedure: as §1, §2

IL-1A = assay: Study 2: IL-1A ELISA in interstitial fluid, effect of supplementation; conditions: for Concentration of IL-1A (log), MEAN: Supplement Yes
Procedure: as §1, §2

IL-1 RA = assay: Study 2: IL-1 RA ELISA in interstitial fluid, effect of supplementation; conditions: for Concentration of IL-1 RA (log), MEAN: Supplement Yes
Procedure: as §1, §2

IgE = assay: Study 2: Total IgE ELISA in interstitial fluid, effect of supplementation; conditions: for Concentration of IgE (log), MEAN: Supplement Yes
Procedure: as §1, §2

## O=C1O[C@H]([C@@H](O)CO)C(O)=C1O [Vitamin C]
IGF-1; sun-exposed site ISF
  Concentration of IGF-1, MEAN: 76.83
IGF-1; sun-protected site ISF
  Concentration of IGF-1, MEAN: 97.78
MMP-1
  Effect of vitamin C supplement on concentration of MMP-1 in ISF: significantly increased
MMP-1; sun-exposed site ISF
  Concentration of MMP-1 (log), MEAN: 0.64
MMP-1; sun-protected site ISF
  Concentration of MMP-1 (log), MEAN: 0.91
IL-1A
  Effect of vitamin C supplement on concentration of IL-1A in ISF: significantly increased
IL-1A; sun-exposed site ISF
  Concentration of IL-1A (log), MEAN: 120.24
IL-1A; sun-protected site ISF
  Concentration of IL-1A (log), MEAN: 191.5
IL-1 RA
  Effect of vitamin C supplement on concentration of IL-1 RA in ISF: significantly increased
IL-1 RA; sun-exposed site ISF
  Concentration of IL-1 RA (log), MEAN: 10140
IL-1 RA; sun-protected site ISF
  Concentration of IL-1 RA (log), MEAN: 9492
IgE
  Effect of vitamin C supplement on concentration of IgE in ISF: significantly increased
IgE; sun-exposed site ISF
  Concentration of IgE (log), MEAN: 4.94
IgE; sun-protected site ISF
  Concentration of IgE (log), MEAN: 18.50
